Results from ChEMBL document CHEMBL1139760, “Studies on a series of potent, orally bioavailable, 5-HT(1) receptor ligands” (Bioorg Med Chem Lett, 2007).

Assays:
[1] = target: T1, 5-hydroxytryptamine receptor 1B (Homo sapiens, UniProt P28222); experiment: Intrinsic activity at human recombinant 5HT1B receptor expressed in CHO cells by [35S]GTP-gamma-S binding assay relative to 5-hydroxytryptamine; type: functional, cell-based
[2] = target: T2, 5-hydroxytryptamine receptor 1D (Homo sapiens, UniProt P28221); experiment: Intrinsic activity at human recombinant 5HT1D receptor expressed in CHO cells by [35S]GTP-gamma-S binding assay relative to 5-hydroxytryptamine; type: functional, cell-based
[3] = target: T3, 5-hydroxytryptamine receptor 1A (Homo sapiens) (UniProt P08908); experiment: Intrinsic activity at human recombinant 5HT1A receptor expressed in CHO cells by [35S]GTP-gamma-S binding assay relative to 5-hydroxytryptamine; type: functional, cell-based
T3 sequence (whole entry): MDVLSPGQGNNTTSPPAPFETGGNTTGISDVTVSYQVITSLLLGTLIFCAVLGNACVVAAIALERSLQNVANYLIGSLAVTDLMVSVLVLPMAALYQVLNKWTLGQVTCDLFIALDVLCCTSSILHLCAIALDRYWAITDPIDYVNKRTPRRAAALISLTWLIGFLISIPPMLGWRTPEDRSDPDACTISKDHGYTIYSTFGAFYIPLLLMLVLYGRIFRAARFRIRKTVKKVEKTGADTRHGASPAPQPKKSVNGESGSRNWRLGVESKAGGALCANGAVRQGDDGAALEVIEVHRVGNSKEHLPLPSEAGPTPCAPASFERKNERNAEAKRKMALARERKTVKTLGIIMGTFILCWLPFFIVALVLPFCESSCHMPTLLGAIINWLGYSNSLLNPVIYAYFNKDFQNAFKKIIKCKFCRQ

[4] = target: T4, 5-hydroxytryptamine receptor 1A (Homo sapiens, UniProt P08908); experiment: Displacement of [3H]WAY 100635 from human recombinant 5HT1A receptor expressed in CHO cells; type: cell-based
T4 sequence (P08908 whole entry): T3 sequence (whole entry)

[5] = target: Cytochrome P450 3A4 (Homo sapiens, UniProt P08684); experiment: Inhibition of CYP3A4; type: ADME
[6] = target: Cytochrome P450 2D6 (Homo sapiens, UniProt P10635); experiment: Inhibition of CYP2D6; type: ADME
[7] = target: Cytochrome P450 2C9 (Homo sapiens, UniProt P11712); experiment: Inhibition of CYP2C9; type: ADME
[8] = Half life in rat at 1 mg/kg, iv; type: ADME, organism-based; set-up: dose 1 mg/kg, route intravenous; details: in vivo
[9] = target: T2, 5-hydroxytryptamine receptor 1D; experiment: Displacement of [3H]5-HT from human recombinant 5HT1D receptor expressed in CHO cells; type: cell-based
[10] = Clearance in rat blood at 1 mg/kg, iv; type: ADME, organism-based; set-up: dose 1 mg/kg, route intravenous
[11] = Oral bioavailability in rat at 3 mg/kg; type: ADME, organism-based; details: in vivo
[12] = target: Cytochrome P450 2C19 (Homo sapiens, UniProt P33261); experiment: Inhibition of CYP2C19; type: ADME
[13] = target: T1, 5-hydroxytryptamine receptor 1B; experiment: Displacement of [3H]5-HT from human recombinant 5HT1B receptor expressed in CHO cells; type: cell-based
[14] = target: T5, Cytochrome P450 1A2 (Homo sapiens, UniProt P05177); experiment: Inhibition of CYP1A2; type: ADME
T5 sequence (P05177 whole entry): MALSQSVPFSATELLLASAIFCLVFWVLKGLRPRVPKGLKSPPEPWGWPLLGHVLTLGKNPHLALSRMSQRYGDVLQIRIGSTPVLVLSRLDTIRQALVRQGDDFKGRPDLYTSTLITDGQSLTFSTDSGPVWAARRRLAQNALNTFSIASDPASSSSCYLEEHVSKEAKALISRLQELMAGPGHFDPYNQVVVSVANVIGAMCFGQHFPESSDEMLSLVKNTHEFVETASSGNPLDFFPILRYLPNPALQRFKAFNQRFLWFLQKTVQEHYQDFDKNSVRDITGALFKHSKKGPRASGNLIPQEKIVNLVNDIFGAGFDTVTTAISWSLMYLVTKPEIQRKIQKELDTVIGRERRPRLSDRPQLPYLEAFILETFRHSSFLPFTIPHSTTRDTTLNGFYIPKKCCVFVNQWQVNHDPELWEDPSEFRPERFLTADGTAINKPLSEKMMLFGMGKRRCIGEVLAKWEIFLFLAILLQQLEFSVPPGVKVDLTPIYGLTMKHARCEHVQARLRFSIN

[15] = target: Sodium-dependent serotonin transporter (Rattus norvegicus, UniProt P31652)
Description: Inhibition of [3H]5-HT uptake at SERT in rat cortical synaptosomes

[16] = Ratio of drug level in brain to blood in rat at 3 mg/kg, po; type: ADME, organism-based; set-up: dose 3 mg/kg, route oral
[17] = target: T4, 5-hydroxytryptamine receptor 1A; experiment: Displacement of [3H]-WAY100635 from human recombinant 5HT1A receptor expressed in CHO cells
[18] = Volume of distribution at steady state in rat at 1 mg/kg, iv; type: ADME, organism-based; set-up: dose 1 mg/kg, route intravenous; details: in vivo, read-out: Vdss
[19] = Selectivity for human recombinant 5HT1D receptor over rat cortical SERT
[20] = tested on: Liver microsomes; experiment: Metabolic stability assessed as intrinsic clearance in human liver microsomes; type: ADME, Microsome
[21] = tested on: Liver microsomes; experiment: Metabolic stability assessed as intrinsic clearance in rat liver microsomes; type: ADME, Microsome
[22] = Selectivity for human recombinant 5HT1B receptor over rat cortical SERT
[23] = Selectivity for human recombinant 5HT1A receptor over rat cortical SERT

Chain of Cytochrome P450 2C9 (P11712 whole entry): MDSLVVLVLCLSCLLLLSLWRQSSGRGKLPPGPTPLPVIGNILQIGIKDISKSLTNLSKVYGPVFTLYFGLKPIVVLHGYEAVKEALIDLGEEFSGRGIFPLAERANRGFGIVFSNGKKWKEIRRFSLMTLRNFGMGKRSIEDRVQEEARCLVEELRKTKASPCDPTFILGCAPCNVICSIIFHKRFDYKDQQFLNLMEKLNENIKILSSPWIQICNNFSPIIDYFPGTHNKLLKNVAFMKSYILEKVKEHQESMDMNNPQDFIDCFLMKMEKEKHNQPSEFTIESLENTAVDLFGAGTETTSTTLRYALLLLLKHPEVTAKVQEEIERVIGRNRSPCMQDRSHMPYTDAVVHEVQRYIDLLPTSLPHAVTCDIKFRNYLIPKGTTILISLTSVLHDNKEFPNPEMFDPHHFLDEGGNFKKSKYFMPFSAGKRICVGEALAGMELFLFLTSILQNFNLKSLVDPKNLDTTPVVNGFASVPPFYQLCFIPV
T2 sequence (P28221 whole entry): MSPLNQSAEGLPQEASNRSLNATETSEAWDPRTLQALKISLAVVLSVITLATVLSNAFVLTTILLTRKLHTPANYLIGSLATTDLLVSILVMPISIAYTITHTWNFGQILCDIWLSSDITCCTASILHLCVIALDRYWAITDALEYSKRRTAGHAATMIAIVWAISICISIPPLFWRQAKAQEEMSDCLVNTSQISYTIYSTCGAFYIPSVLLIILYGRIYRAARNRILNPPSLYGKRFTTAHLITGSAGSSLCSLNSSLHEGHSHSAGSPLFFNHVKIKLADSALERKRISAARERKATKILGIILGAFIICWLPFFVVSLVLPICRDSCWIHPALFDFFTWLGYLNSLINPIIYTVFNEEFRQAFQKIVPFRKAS
Chain of Cytochrome P450 3A4 (P08684 whole entry): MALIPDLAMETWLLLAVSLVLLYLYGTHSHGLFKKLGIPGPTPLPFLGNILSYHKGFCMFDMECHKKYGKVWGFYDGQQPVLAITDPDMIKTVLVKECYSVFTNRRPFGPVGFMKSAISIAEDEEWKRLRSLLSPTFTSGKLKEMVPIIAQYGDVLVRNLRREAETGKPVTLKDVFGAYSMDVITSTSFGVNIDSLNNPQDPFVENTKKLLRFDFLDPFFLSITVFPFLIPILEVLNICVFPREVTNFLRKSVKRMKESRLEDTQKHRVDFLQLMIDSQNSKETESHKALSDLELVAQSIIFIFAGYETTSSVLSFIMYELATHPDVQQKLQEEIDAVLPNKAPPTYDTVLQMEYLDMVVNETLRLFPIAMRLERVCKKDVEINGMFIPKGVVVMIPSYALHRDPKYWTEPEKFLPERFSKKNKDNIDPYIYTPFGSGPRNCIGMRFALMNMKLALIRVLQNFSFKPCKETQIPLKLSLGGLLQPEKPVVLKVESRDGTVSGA
Chain of Sodium-dependent serotonin transporter (P31652 whole entry): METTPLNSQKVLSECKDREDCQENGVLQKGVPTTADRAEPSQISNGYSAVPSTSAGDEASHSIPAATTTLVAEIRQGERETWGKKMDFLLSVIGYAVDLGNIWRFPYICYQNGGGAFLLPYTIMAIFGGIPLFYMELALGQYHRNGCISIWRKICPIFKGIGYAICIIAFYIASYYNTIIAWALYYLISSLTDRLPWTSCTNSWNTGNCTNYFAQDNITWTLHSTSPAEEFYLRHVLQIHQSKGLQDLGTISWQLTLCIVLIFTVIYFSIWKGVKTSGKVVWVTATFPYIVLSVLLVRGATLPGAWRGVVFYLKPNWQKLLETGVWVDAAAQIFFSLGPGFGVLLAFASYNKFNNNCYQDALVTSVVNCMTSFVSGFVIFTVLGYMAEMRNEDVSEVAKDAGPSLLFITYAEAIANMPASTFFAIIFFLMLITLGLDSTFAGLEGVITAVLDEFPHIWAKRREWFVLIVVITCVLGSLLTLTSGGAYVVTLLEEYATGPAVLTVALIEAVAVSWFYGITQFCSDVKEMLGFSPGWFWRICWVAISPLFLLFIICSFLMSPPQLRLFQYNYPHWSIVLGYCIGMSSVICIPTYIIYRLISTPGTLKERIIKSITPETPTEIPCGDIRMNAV
Chain of Cytochrome P450 2D6 (P10635 whole entry): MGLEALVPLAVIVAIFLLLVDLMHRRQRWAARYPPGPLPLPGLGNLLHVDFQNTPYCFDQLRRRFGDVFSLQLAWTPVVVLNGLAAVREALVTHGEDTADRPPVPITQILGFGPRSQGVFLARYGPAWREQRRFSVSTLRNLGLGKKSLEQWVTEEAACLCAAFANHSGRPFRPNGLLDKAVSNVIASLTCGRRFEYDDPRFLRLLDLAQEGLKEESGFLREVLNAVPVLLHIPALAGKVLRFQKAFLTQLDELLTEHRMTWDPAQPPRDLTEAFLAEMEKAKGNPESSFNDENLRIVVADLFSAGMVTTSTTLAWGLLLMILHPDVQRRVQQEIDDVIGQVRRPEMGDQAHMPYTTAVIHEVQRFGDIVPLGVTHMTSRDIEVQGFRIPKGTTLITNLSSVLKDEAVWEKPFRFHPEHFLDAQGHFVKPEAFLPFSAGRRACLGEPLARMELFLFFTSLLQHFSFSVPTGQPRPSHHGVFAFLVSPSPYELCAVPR
T1 sequence (P28222 whole entry): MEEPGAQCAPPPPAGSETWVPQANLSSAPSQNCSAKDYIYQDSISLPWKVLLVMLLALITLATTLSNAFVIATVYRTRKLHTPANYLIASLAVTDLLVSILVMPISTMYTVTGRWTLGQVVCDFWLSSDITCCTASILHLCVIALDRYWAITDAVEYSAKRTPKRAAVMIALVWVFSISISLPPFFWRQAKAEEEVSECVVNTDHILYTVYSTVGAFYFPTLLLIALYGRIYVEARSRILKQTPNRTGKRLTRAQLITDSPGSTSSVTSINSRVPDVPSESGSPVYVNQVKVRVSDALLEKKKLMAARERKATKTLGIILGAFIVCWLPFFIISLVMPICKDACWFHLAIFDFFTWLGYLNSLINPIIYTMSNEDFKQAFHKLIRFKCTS
Chain of Cytochrome P450 2C19 (P33261 whole entry): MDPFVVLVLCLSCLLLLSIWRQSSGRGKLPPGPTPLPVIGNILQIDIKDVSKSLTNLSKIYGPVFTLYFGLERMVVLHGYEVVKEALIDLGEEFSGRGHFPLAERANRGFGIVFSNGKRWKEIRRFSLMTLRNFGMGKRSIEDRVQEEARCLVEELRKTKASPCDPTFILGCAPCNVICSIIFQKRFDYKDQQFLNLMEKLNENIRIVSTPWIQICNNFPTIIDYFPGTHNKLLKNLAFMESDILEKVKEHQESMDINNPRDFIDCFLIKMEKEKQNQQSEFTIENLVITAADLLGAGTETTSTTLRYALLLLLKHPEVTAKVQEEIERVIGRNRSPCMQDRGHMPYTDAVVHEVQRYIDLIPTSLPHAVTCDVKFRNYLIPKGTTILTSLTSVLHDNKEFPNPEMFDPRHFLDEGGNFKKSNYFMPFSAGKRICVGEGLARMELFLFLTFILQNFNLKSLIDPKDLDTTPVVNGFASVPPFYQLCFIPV

COc1ccc(NC(=O)c2ccc(-c3ccc(-c4noc(C)n4)cc3C)cc2)cc1N1CCN(C)CC1
Intrinsic activity [1]: 0.3
Intrinsic activity [2]: 0.8

CCN1C(=O)COc2ccc(CN3CCN(CCOc4cccc5nc(C)ccc45)CC3)c(F)c21
Intrinsic activity [3]: 0.1
Ki [4]: 2.51 nM
IC50 [5]: > 9000 nM
IC50 [6]: > 9000 nM
IC50 [7]: > 9000 nM
half-life [8]: 2.8 h
Ki [9]: 1.26 nM
clearance [10]: 23 mL/min/kg
Intrinsic activity [1]: 0.5
bioavailability [11]: 34%
IC50 [12]: > 9000 nM
Ki [13]: 1.58 nM
IC50 [14]: > 9000 nM
Ki [15]: 200 nM
Kp [16]: 1.2
Intrinsic activity [2]: 0.7

Cc1ccc2c(OCCN3CCN(Cc4ccc5c(c4)N(Cc4ccccc4)C(=O)CO5)CC3)cccc2n1
IC50 [5]: 12000 nM
IC50 [6]: 15000 nM
IC50 [7]: 7000 nM
Ki [9]: 6.31 nM
IC50 [12]: 11000 nM
Ki [17]: 3.98 nM
Ki [13]: 63.1 nM
IC50 [14]: 11000 nM
Ki [15]: 316 nM

Cc1ccc2c(OCCN3CCN(Cc4cc(F)c5c(c4)N(C)C(=O)CO5)CC3)cccc2n1
Intrinsic activity [3]: 0
Ki [4]: 7.94 nM
IC50 [5]: > 19000 nM
IC50 [6]: > 19000 nM
IC50 [7]: > 19000 nM
half-life [8]: 1.3 h
Ki [9]: 0.398 nM
clearance [10]: 14 mL/min/kg
Intrinsic activity [1]: 0.7
IC50 [12]: > 19000 nM
Ki [13]: 0.2 nM
IC50 [14]: > 19000 nM
Ki [15]: 50.1 nM
Kp [16]: 3.6
Intrinsic activity [2]: 0.6

CCN1C(=O)COc2ccc(CC3CCN(CCOc4cccc5nc(C)ccc45)CC3)cc21
Vd [18]: 2.5 L/kg
Ratio pKi [19]: 30
Intrinsic activity [3]: 0.1
Ki [4]: 3.16 nM
half-life [8]: 1.6 h
CL [20]: 2.8 mL/min/g
Ki [9]: 1.58 nM
CL [21]: 7.7 mL/min/g
Ratio pKi [22]: 30
clearance [10]: 31 mL/min/kg
Intrinsic activity [1]: 0.4
Ki [17]: 0.251 nM
Ki [13]: 3.98 nM
Ki [15]: 126 nM
Ratio pKi [23]: 30
Intrinsic activity [2]: 0.6

CCN1C(=O)COc2ccc(CN3CCN(CCOc4cccc5nc(C)ccc45)CC3)cc21
Intrinsic activity [3]: 0.1
Ki [4]: 39.8 nM
IC50 [7]: 14000 nM
Ki [9]: 1 nM
Intrinsic activity [1]: 0.4
Ki [17]: 1.26 nM
Ki [13]: 25.1 nM
IC50 [14]: 18000 nM
Ki [15]: 2000 nM
Intrinsic activity [2]: 0.3

Cc1ccc2c(OCCN3CCC(Cc4ccc5c(c4)N(C(C)C)C(=O)CO5)CC3)cccc2n1
Intrinsic activity [3]: 0
Ki [4]: 5.01 nM
Ki [9]: 3.98 nM
Intrinsic activity [1]: 0.6
Ki [17]: 0.631 nM
Ki [13]: 39.8 nM
Ki [15]: 100 nM

CCCN1C(=O)COc2ccc(CN3CCN(CCOc4cccc5nc(C)ccc45)CC3)cc21
Intrinsic activity [3]: 0.1
Ki [4]: 25.1 nM
IC50 [7]: 18000 nM
Ki [9]: 2 nM
Intrinsic activity [1]: 0.4
Ki [17]: 0.251 nM
Ki [13]: 31.6 nM
Ki [15]: 158 nM
Intrinsic activity [2]: 0.5

CCCCN1C(=O)COc2ccc(CN3CCN(CCOc4cccc5nc(C)ccc45)CC3)cc21
IC50 [7]: 12000 nM
Ki [9]: 3.16 nM
IC50 [12]: 16000 nM
Ki [17]: 1.26 nM
Ki [13]: 31.6 nM
IC50 [14]: 4000 nM
Ki [15]: 158 nM

Cc1ccc2c(OCCN3CCN(Cc4ccc5c(c4)N(C)C(=O)CO5)CC3)cccc2n1
Intrinsic activity [3]: 0
Ki [4]: 10 nM
IC50 [5]: > 20000 nM
IC50 [6]: > 20000 nM
IC50 [7]: > 20000 nM
Ki [9]: 0.501 nM
Intrinsic activity [1]: 0.8
IC50 [12]: > 20000 nM
Ki [17]: 1.58 nM
Ki [13]: 7.94 nM
IC50 [14]: > 20000 nM
Ki [15]: 100 nM

Cc1ccc2c(OCCN3CCN(Cc4ccc5c(c4)NC(=O)CO5)CC3)cccc2n1
Intrinsic activity [3]: 0
Ki [4]: 63.1 nM
Ki [9]: 10 nM
Intrinsic activity [1]: 0.6
Ki [17]: 1.58 nM
Ki [13]: 100 nM
Ki [15]: 25.1 nM

Cc1ccc2c(OCCN3CCN(Cc4ccc5c(c4)N(CC(C)C)C(=O)CO5)CC3)cccc2n1
Ki [9]: 2.51 nM
Ki [17]: 2 nM
Ki [13]: 31.6 nM
Ki [15]: 1580 nM

Cc1ccc2c(OCCN3CCN(Cc4ccc5c(c4)N(CCc4ccccc4)C(=O)CO5)CC3)cccc2n1
Ki [4]: 31.6 nM
IC50 [5]: 9000 nM
IC50 [6]: 14000 nM
IC50 [7]: 4000 nM
Ki [9]: 2 nM
IC50 [12]: 5000 nM
Ki [17]: 1.26 nM
Ki [13]: 25.1 nM
IC50 [14]: 17000 nM

Cc1ccc2c(OCCN3CCC(Cc4ccc5c(c4)NC(=O)CO5)CC3)cccc2n1
Vd [18]: 4.4 L/kg
Intrinsic activity [3]: 0.1
half-life [8]: 1.3 h
CL [20]: 1.2 mL/min/g
CL [21]: 3.4 mL/min/g
clearance [10]: 50 mL/min/kg
Intrinsic activity [1]: 0.5
bioavailability [11]: 40%
Intrinsic activity [2]: 0.5

Cc1ccc2c(OCCN3CCN(Cc4ccc5c(c4F)N(C)C(=O)CO5)CC3)cccc2n1
Intrinsic activity [3]: 0
Ki [4]: 3.16 nM
IC50 [5]: > 16000 nM
IC50 [6]: > 16000 nM
IC50 [7]: > 16000 nM
half-life [8]: 2 h
Ki [9]: 0.501 nM
clearance [10]: 34 mL/min/kg
Intrinsic activity [1]: 0.4
bioavailability [11]: 65%
IC50 [12]: > 16000 nM
Ki [13]: 1.58 nM
IC50 [14]: > 16000 nM
Ki [15]: 79.4 nM
Kp [16]: 2.7
Intrinsic activity [2]: 0.6
